The results in this text go back to ChEMBL document CHEMBL1148913, “Celogenamide A, a new cyclic peptide from the seeds of Celosia argentea” (J Nat Prod, 2004).

A value given as a limit tells only on which side of the number the result lay.

The test can be described thus: Inhibition of tubulin polymerization assessed as turbidity by microtubule assembly assay.
In general, IC50 refers to the concentration needed to halve the response being measured. With `COC(=O)[C@@H]1Cc2cn(c3ccccc23)[C@@H](NC(=O)[C@H](Cc2ccc(O)cc2)NC(=O)[C@@H]2CCCN2C(=O)[C@@H]2CCC(=O)N2)C(=O)N[C@@H](C(C)C)C(=O)N[C@@H](Cc2ccccc2)C(=O)N[C@@H](CO)C(=O)N1` [LYCIUMIN C], the IC50 was over 100 µM.
As for `CC(C)[C@@H]1NC(=O)[C@H](NC(=O)[C@H](Cc2ccc(O)cc2)NC(=O)[C@@H]2CCCN2C(=O)[C@@H]2CCC(=O)N2)n2cc(c3ccccc32)C[C@@H](C(=O)N[C@@H](CCCCN)C(=O)O)NC(=O)[C@H](CO)NC(=O)[C@H](Cc2ccccc2)NC1=O` [CELOGENAMIDE A], the figure is over 100 µM.
As for `COC(=O)[C@@H]1Cc2cn(c3ccccc23)[C@@H](NC(=O)[C@H](Cc2ccc(O)cc2)NC(=O)[C@@H]2CCCN2C(=O)[C@@H]2CCC(=O)N2)C(=O)N[C@@H](C(C)C)C(=O)NCC(=O)N[C@@H](CO)C(=O)N1` [LYCLUMIN A], the figure is over 100 µM.
